According to US10391150B2, “Treatments for migraine and related disorders” (The University of Chicago, priority 2011, dated 2019):
Read-outs that look alike come from different tables or passages of the source.

How the values were obtained:
[1] = system: CA3 area evoked excitability; format: cell-based, rat; conditions: H2O2 exposure
Protocol: (§1) FIGS. 11a-11g IGF-1 decreased CA3 oxidative stress (OS) and its related hyperexcitability. […] Relative evoked excitability was determined as a sum of responses seen (e.g., responses of “2” and a “3” yielded an overall excitability score of five). […] (FIGS. 11d-e) Exemplary images of control (FIG. 11d) slice culture OS compared to increased slice OS induced by exposure to menadione (FIG. 11e). Calibration bar, 200 Dotted boxes indicate CA3 areas of interest used for relative OS quantifications (f and g).

[2] = system: oxidative stress (OS) in hippocampal slice cultures; test: Oxidative stress (OS) by CellROX fluorescence in hippocampal slice cultures (CA3); format: cell-based, rat; conditions: menadione exposure, without or with acute IGF-1
Protocol: FIGS. 4A-4F Oxidative stress (OS) from SD and its reduction by IGF-1. (FIG. 4A) Normal cytoarchitecture of a hippocampal slice culture showing pyramidal neuron areas of CA1, dentate gyrus (DG), and the imaging zone for the inventors' work here (dotted line), CA3. (FIG. 4B) OS was measured using CellROX, a fixable fluorescent marker from Invitrogen. […] (FIG. 4D) This reduction versus control SD was significant (p<0.02; n=4 & 5). (FIG. 4E) CellROX can be used to measure relative OS in specific brain cell types.
FIGS. 9a-9f IGF-1 decreased oxidative stress from spreading depression. (FIG. 9a) NeuN immunohistochemical labeling of a hippocampal slice culture, for cytoarchitectural reference and to show the CA3 area of interest (dotted line box) used for quantification of oxidative stress (OS) via CellROX™ fluorescence intensity. (FIGS. 9b-c) Representative CellROX™-labeled hippocampal slices exposed to SD (FIG. 9b) and to 3-day IGF-1 incubation followed by spreading depression (SD) (FIG. 9c). Dotted line boxes illustrate CA3 areas of interest used for relative OS quantifications. […] Again, seven day treatments consisted of exposing cultures to IGF-1 for 12 hours a day for seven days. Note: IGF-1 exposure was continued for the additional 24 hour CellROX™ incubation. Scale bars=400 μm (a) and 200 μm (b and c). Comparisons between groups were made via ANOVA plus Holm-Sidak post hoc testing.
as §1
Oxidative stress from SD preferentially rises in astrocytes and microglia, with the latter effect mitigated by IGF-1 (FIG. 13). The inventors have recently shown that spreading depression (SD), the most likely cause of migraine aura and perhaps migraine (Lauritzen and Kraig, 2005), occurs with increased oxidative stress (OS) and that OS, in turn, increases SD susceptibility (Grinberg et al., 2012). Reactive oxygen and nitrogen species that cause OS have both autocrine and paracrine signaling capacities that can affect SD susceptibility by altering excitability (Kishida and Klann, 2007). Accordingly, the inventors looked for the cellular origin of OS from SD. Here the inventors used hippocampal slice cultures (HSC) to probe for cell-specific changes in OS from SD. SD was induced trans-synaptically in rat HSCs using bipolar electrical stimuli at the dentate gyrus (Pusic et al., 2011). Six SDs were induced every 7-9 min over an hr, followed by 24 hr incubation in CellROX™, a fixable fluorogenic probe for measuring OS (Grinberg et al., 2012). HSCs were then fixed in 10% buffered formalin phosphate. Other fixatives (PLP, 4% paraformaldehyde) prevented detection of OS change. Tissue was then labeled for neurons (anti-NeuN), oligodendrocytes (anti-RIP), astrocytes (anti-GFAP), or for microglia (isolectin GS-IB4).

[3] = system: SD in neocortex and hippocampus of anesthetized rat; test: SD threshold in vivo (0.5 M KCl injection) after nasal administration; conditions: acutely after nasal treatment (IGF-1 150 μg; insulin 20 μg); control 1-8 nL
Protocol: Images show experimental setups for nasal administration and testing. (FIG. 7A) Nasal injection setup showing heat lamp and thermo-regulator that maintains temperature at 37° C. plus nose cone used to deliver isoflurane anesthesia. (FIG. 7B) Operator is shown administering nasal IGF-1 solution, which is performed in a fume hood to adequately vent isoflurane from nose cone. (FIG. 7C) Image illustrates standard electrophysiology setup. Anesthetized animal is placed into a standard electrophysiology holder and anesthesia maintained by a nose cone delivering 3% isoflurane in oxygen. Arterial oxygen saturation is monitored with a pulse-oximeter. Animals are warmed to 37.5° C. with a heating plate. SD is induced by progressively injecting larger volumes of 0.5 M KCl from an 8 μm diameter microelectrode. SD is registered with a second microelectrode used for DC recordings placed more caudally. After SD is evoked by a given injection pulse, the stimulating electrode is withdrawn and a volume re-injected under mineral oil. The diameter of the resultant KCl injection sphere is then measured off line using a compound microscope and the injection volume calculated. For example, in the above whole animal experiments it took 1-8 nL of 0.5 M KCl to evoke SD in control brain regions while after acute IGF-1 this amount rose to 67-109 nL. A day after IGF-1 treatment the volume needed to evoked SD was 34-48 nL. IFN-γ treatment required 338 nL of 0.5 M KCl a day after treatment and IL-11 required 67-200 nL.
Rats (FIGS. 6 and 7) are anesthetized with inhalational isoflurane and kept warm. While anesthetized, animals are placed in a supine position and 50 μL of sterile drug (i.e., IFN-γ, IGF-1, or IL-11) solution [or sterile saline vehicle (sham control)] is administered nasally by delivering 5 μL alternating between the left and right naris every 2 min over 20 minutes. Animals are given nasal drug treatments daily at the same time for 7 days before subsequent experiments. Doses for all 3 agents begin with the effective doses noted in our work using slice cultures (1×), then include others (0.1× and 10×). The inventors base this strategy on the fact that the effective culture dose for IGF-1 (40 ng/mL) closely approximates the dose used in vivo (143 μg/kg).
This approach was applied to measurement of SD threshold (FIG. 10) after treatment (FIG. 7) with nasally administered IGF-1 (150 μg), IL-11 (1 μg), IFN-γ (50,000 units), and insulin (20 μg). […] Resistance against SD was always greater in hippocampus compared to neocortex (n=4, controls; n=3, acutely after IGF-1; n=6, one day after IGF-1; n=6, one day after IL-11; n=6, one day after IFN-γ; and n=3, acutely after insulin).
Nasal administration followed by SD threshold evaluation in vivo. Vehicle or human recombinant IGF-1 (150 μg) is administered intranasally. SD threshold is established by injection of nanoliter volumes of 0.5 M KCl into neocortex or hippocampus (−2.0 mm from Bregma and 1.5 mm lateral from midline at either 750 μm or 2,800 μm into brain, respectively) using a thin-walled glass pipette and Picospritzer. Once a threshold is established, it is confirmed two more times, with an exemplary record from a vehicle-sham animal shown below. […] The diameter of the injected sphere is then measured using a compound microscope and used to calculate the injected volume, then moles of potassium. […]

[4] = system: spreading depression (SD) in hippocampal slice cultures; test: Spreading depression (SD) threshold / susceptibility in hippocampal slice cultures; format: cell-based, rat
Text: FIGS. 2A-2E. […] (FIG. 2A) Experiments begin with determination of the current needed to maximize standard CA3 area field potential responses. Half-maximal intensity is then used to elicit CA3 area evoked field potentials from dentate gyrus bipolar electrical stimulation. This documents the normalcy of evoked synaptic responses between preparations. If a slice's field excitatory post synaptic potentials are not at least 3 mV, slices are discarded. Next, field potential trains (i) are noted to verify that preparations are healthy enough to follow 10 Hz stimulation (e.g., amplitudes of vertical deviations in fast potential records are similar) and the current needed to trigger SD (ii) is registered (Pusic and Kraig, 2010).
(FIG. 8a) Exemplary CA3 area evoked field potential. Experiments begin with establishment of the current intensity needed to evoke maximal field potential responses; stimuli of half-maximal intensity were then used to elicit subsequent field potentials. Only those cultures with CA3 pyramidal neuron post-synaptic responses of at least 3 mV were used for experiments. (FIG. 8b) CA3 response to dentate gyrus bipolar stimulation (10 pulses at 10 Hz, 500 μA) was used to elicit a spreading depression (SD), as shown in (FIG. 8c). (FIG. 8c) The spreading depression (SD) shown here was induced by the stimulation/response (arrow) shown in (FIG. 8b). […] Comparisons between groups made via Student's t-test.
The inventors induced SD trans-synaptically in rat HSC using electrical stimuli (100 μs pulses @ 10 Hz for 1 s) ranging from 1 to 10,000 nC in order to determine SD threshold in sham and experimental groups (Pusic et al., 2011). Results were based on n≥3-6/group. […] This insulin dose approximates the pharmacological levels seen in humans treated with nasal insulin.
Slice cultures were prepared and maintained as previously described (Mitchell et al., 2010a,). After 18 days in vitro (DIV), slice cultures were transferred to serum-free media that included additional calcium and magnesium. Cultures were screened at 21 DIV to ensure no pyramidal neuron death was present. Standard electrophysiological recordings were performed by placing a slice culture insert in a PDMI recording chamber with controlled temperature and pH (FIG. 1). The recording chamber was aerated with 5% CO2-balance air at 36° C. and media flowing at 1.2 mL/min or was held static around the slice culture insert. A recording electrode was placed at the CA3 pyramidal cell layer and a stimulating electrode was placed at the surface of the dentate gyrus. Recordings were initiated prior to placing the stimulating electrode on the culture to ensure no spreading depression was triggered as a result.
Studies began with determination of the current needed to maximize standard CA3 area field potential responses. This documented the normalcy of evoked synaptic responses between preparations. If a slice's field EPSPs were not at least 3-4 mV, it was discarded.
Next, trans-synaptically evoked SD was determined. Here, the inventors stimulated slices via the dentate gyrus with 100 μs pulses delivered at 10 Hz for 1 sec every 1-2 minutes at increasing μA current intensities until SD occurred.
Slice cultures are prepared, maintained, and induced to fire SD as previously described using trans-synaptic excitation of CA3, where SD is initiated (FIG. 4) (Kunkler et al., 2005; Pusic et al., 2011).

[5] = system: myelin basic protein (MBP); test: Myelin basic protein (MBP) Western blot in hippocampal slice cultures; format: cell-based, rat; conditions: after SD; anti-CD4 for 24 hours at 7 days in vitro; GW 4869
Protocol: FIGS. 14A-14C. Reduced myelin basic protein (MBP) from SD depends on IFN-γ/T-cell activation and sphingomylinase. […] Thus, confirming involvement of T cells.
FIGS. 15A-15C. Physiological and transient elevation [i.e., phasic (see FIG. 1)] of IFN-γ triggers completely opposite effects. Transient (i.e., 500 U/mL×12 hours; all groups n≥5) exposure of hippocampal slice cultures was nutritive when assessed seven days later.

OO [hydrogen peroxide, reference compound]
evoked excitability versus control ([1]; without or with IGF-1 pretreatment for 3 days): increased slice excitability | evoked excitability versus control ([1]; without or with acute IGF-1, 30 minutes after H2O2): significantly increased evoked slice hyperexcitability | evoked excitability versus control ([1]; without or with acute IGF-1, 30 minutes after H2O2, listed as H2O2): increase in evoked excitability

CC1=CC(=O)c2ccccc2C1=O [menadione, reference compound]
OS induced by menadione versus control [2]: significant increase in slice OS

Insulin
volume of 0.5 M KCl needed to evoke SD [3]: 8 to 34 nL | relative SD threshold versus control (control 1.00±0.20) ([4]; 3-day exposure, insulin 400 μg/mL): 22.60±9.60 | insulin dose needed for protective effect relative to IGF-1 ([4]; protection against SD in slice cultures): 15 500 fold | dose needed for protective effect against SD ([4]; slice cultures): 70 µM

O=C(/C=C/c1ccc(/C=C/C(=O)Nc2ccc(C3=NCCN3)cc2)cc1)Nc1ccc(C2=NCCN2)cc1 [GW 4869, reference compound]
decline in MBP / demyelination after SD [5]: prevents the drop in MBP after SD

B1: sTNFR1: soluble TNFR1 used for removal of TNF-α signaling (protein, UniProt P19438 30-211, looked up)
extracellular domain: LVPHLGDREKRDSVCPQGKYIHPQNNSICCTKCHKGTYLYNDCPGPGQDTDCRECESGSFTASENHLRHCLSCSKCRKEMGQVEISSCTVDRDTVCGCRKNQYRHYWSENLFQCFNCSLCLNGTVHLSCQEKQNTVCTCHAGFFLRENECVSCSNCKKSLECTKLCLPQIENVKGTEDSGTT
modifications: extracellular domain
notes: soluble TNFR1 used for removal of TNF-α signaling
SD-induced increased susceptibility to SD ([4]; after previous SD, soluble TNFR1 200 ng/mL after first day of SD, anti-CD4 0.1 mg/mL at 7 days for 24 hours): abrogated
